Columns and labels:
THP1-Dual = assay: Cytotoxicity against human THP1-Dual habouring STING assessed as inhibition of cell growth by MTS assay; format: functional, cell-based
[1] = molecular target: T1, Stimulator of interferon genes protein (Homo sapiens, UniProt Q86WV6); assay: Agonist activity at STING in human […] KO-STING cells incubated for 20 hrs by Quanti-luc reagent based assay; format: cell-based, THP1-Dual KO-STING
[2] = Cytotoxicity against human THP1-Dual KO-STING cells assessed as inhibition of cell growth by MTS assay; format: functional, cell-based
[3] = molecular target: T1, Stimulator of interferon genes protein; assay: Agonist activity at STING in human THP1-Dual cells incubated for 20 hrs by Quanti-luc reagent based assay; format: cell-based

T1 sequence (Q86WV6 whole entry): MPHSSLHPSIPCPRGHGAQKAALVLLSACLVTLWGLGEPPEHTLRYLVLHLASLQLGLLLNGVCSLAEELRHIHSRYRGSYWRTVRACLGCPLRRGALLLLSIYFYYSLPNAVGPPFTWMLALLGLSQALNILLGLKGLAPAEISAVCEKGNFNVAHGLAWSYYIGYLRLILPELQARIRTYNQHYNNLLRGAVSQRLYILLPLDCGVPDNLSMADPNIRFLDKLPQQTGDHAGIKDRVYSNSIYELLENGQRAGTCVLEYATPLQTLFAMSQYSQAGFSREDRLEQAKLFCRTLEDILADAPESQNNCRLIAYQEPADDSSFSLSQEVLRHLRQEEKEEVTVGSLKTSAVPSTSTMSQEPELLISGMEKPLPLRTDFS

| Structure (SMILES) | EC50 [1] [µM] | EC50 [3] [µM] | IC50 (THP1-Dual) [µM] | IC50 [2] [µM] |
| --- | --- | --- | --- | --- |
| CCn1nc(C)cc1C(=O)Nc1nc2cc(C(N)=O)cc(OC)c2n1C/C=C/CNc1ccc(C(N)=O)cc1[N+](=O)[O-] | > 100 | > 100 | > 100 | > 100 |
| CCn1nc(C)cc1C(=O)Nc1nc2cc(C(N)=O)cc(OC)c2n1CCOCCNC(=O)c1ccc(C(F)(F)F)cc1 | > 100 | > 100 | > 100 | > 100 |
| CCn1nc(C)cc1C(=O)Nc1nc2cc(C(N)=O)cc(OC)c2n1C/C=C/CNC1CCN(C)CC1 | > 100 | > 100 | > 100 | > 100 |
| CCn1nc(C)cc1C(=O)Nc1nc2cc(C(N)=O)cc(OC)c2n1C/C=C/CNC(=O)c1cc(F)nc(F)c1 | > 100 | > 100 | > 100 | > 100 |
| CCn1nc(C)cc1C(=O)Nc1nc2cc(C(N)=O)cc(OC)c2n1C/C=C/CNC(=O)c1cnccn1 | > 100 | > 100 | > 100 | > 100 |
| CCn1nc(C)cc1C(=O)Nc1nc2cc(C(N)=O)cc(OCC3COC3)c2n1NCCCNC(=O)c1ccc2ccccc2c1 | > 100 | 39.4 | 11.3 | 18.2 |
| CCn1nc(C)cc1C(=O)Nc1nc2cc(C(N)=O)cc(OC)c2n1C/C=C/CNC(=O)c1ccccn1 | > 100 | > 100 | > 100 | > 100 |
| CCn1nc(C)cc1C(=O)Nc1nc2cc(C(N)=O)cc(OC)c2n1C/C=C/CNC(=O)c1ccc(F)cc1 | > 100 | > 100 | > 100 | > 100 |
| CCn1nc(C)cc1C(=O)Nc1nc2cc(C(N)=O)cc(OC)c2n1C/C=C/CNC(=O)C1CCCC1 | > 100 | > 100 | > 100 | > 100 |
| CCn1nc(C)cc1C(=O)Nc1nc2cc(C(N)=O)cc(OC)c2n1C/C=C/CNC(=O)c1ccoc1 | > 100 | > 100 | > 100 | > 100 |
| CCn1nc(C)cc1C(=O)Nc1nc2cc(C(N)=O)cc(OC)c2n1NCCCNC(=O)NCc1ccccc1 | > 100 | 8.52 | > 100 | > 100 |
| CCn1nc(C)cc1C(=O)Nc1nc2cc(C(N)=O)cc(OC)c2n1C/C=C/Cn1c(C(F)(F)F)nc2cc(C(N)=O)ccc21 | > 100 | > 100 | > 100 | > 100 |
| CCn1nc(C)cc1C(=O)Nc1nc2cc(C(N)=O)cc(OC)c2n1C/C=C/CNC(=O)c1cnc(OC)cn1 | > 100 | > 100 | > 100 | > 100 |
| CCn1nc(C)cc1C(=O)Nc1nc2cc(C(N)=O)cc(OC)c2n1C/C=C/Cn1c(=O)[nH]c2cc(C(N)=O)ccc21 | > 100 | > 100 | > 100 | > 100 |
| CCn1nc(C)cc1C(=O)Nc1nc2cc(C(N)=O)cc(OC)c2n1C/C=C/CNC(=O)c1ccc(Cl)cc1 | > 100 | > 100 | > 100 | > 100 |
| CCn1nc(C)cc1C(=O)Nc1nc2cc(C(N)=O)cc(OC)c2n1NCCCC(=O)NCc1ccc(Cl)cc1Br | > 100 | 96.3 | > 100 | > 100 |
| CCn1nc(C)cc1C(=O)Nc1nc2cc(C(N)=O)cc(OCCCOC)c2n1NCCCC(=O)NCc1ccc(F)cc1 | > 100 | 2.96 | > 100 | > 100 |
| CCn1nc(C)cc1C(=O)Nc1nc2cc(C(N)=O)cc(OC)c2n1C/C=C/CNC(=O)Cc1ccc(C(F)(F)F)cc1 | > 100 | > 100 | > 100 | > 100 |
| CCn1nc(C)cc1C(=O)Nc1nc2cc(C(N)=O)cc(OCC3COC3)c2n1NCCCC(=O)NCc1ccc(F)cc1 | > 100 | 7.13 | > 100 | > 100 |
| CCn1nc(C)cc1C(=O)Nc1nc2cc(C(N)=O)cc(OCCCN3CCOCC3)c2n1NCCCC(=O)NCc1ccc(F)cc1 | > 100 | 9.73 | > 100 | > 100 |
| CCn1nc(C)cc1C(=O)Nc1nc2cc(C(N)=O)cc(OC)c2n1NCCCC(=O)NCc1ccc(Br)cc1F | > 100 | 5.28 | > 100 | > 100 |
| CCn1nc(C)cc1C(=O)Nc1nc2cc(C(N)=O)cc(OC)c2n1NCCCC(=O)NCc1ccc(Cl)cc1C(F)(F)F | > 100 | > 100 | > 100 | > 100 |

The next lines start with results.

| EC50 [1] [µM] | EC50 [3] [µM] | Structure (SMILES) | IC50 (THP1-Dual) [µM] | IC50 [2] [µM] |
| --- | --- | --- | --- | --- |
| > 100 | 13 | CCn1nc(C)cc1C(=O)Nc1nc2cc(C(N)=O)cc(OC)c2n1NCCCC(=O)NCc1ccc(C(F)(F)F)cc1 | > 100 | > 100 |
| > 100 | > 100 | CCn1nc(C)cc1C(=O)Nc1nc2cc(C(N)=O)cc(OC)c2n1C/C=C/CNC(=O)NCc1ccccc1 | > 100 | > 100 |
| > 100 | 28.8 | CCn1nc(C)cc1C(=O)Nc1nc2cc(C(N)=O)cc(OC)c2n1NCCCC(=O)NCc1ccc(Oc2ccccc2)cc1 | > 100 | > 100 |
| > 100 | > 100 | CCn1nc(C)cc1C(=O)Nc1nc2cc(C(N)=O)cc(OC)c2n1CCCN1CCN(Cc2ccc3ccccc3c2)C(=O)C1 | > 100 | > 100 |
| > 100 | > 100 | CCn1nc(C)cc1C(=O)Nc1nc2cc(C(N)=O)cc(OC)c2n1CCOCCNC(=O)c1ccc(OC)cc1 | > 100 | > 100 |
| > 100 | > 100 | CCn1nc(C)cc1C(=O)Nc1nc2cc(C(N)=O)cc(OC)c2n1CCCN1CCC(C(=O)Nc2ccc3ccccc3c2)CC1 | > 100 | > 100 |
| > 100 | > 100 | CCn1nc(C)cc1C(=O)Nc1nc2cc(C(N)=O)cc(OC)c2n1C/C=C/CNC(=O)c1ccc2ccccc2c1 | > 100 | > 100 |
| > 100 | > 100 | CCn1nc(C)cc1C(=O)Nc1nc2cc(C(N)=O)cc(OC)c2n1NCCCNC(=O)NCc1ccc2ccccc2c1 | > 100 | > 100 |
| > 100 | 4.13 | CCn1nc(C)cc1C(=O)Nc1nc2cc(C(N)=O)cc(OC)c2n1CCCC(=O)NCc1ccccc1 | > 100 | > 100 |
| > 100 | > 100 | CCn1nc(C)cc1C(=O)Nc1nc2cc(C(N)=O)cc(OC)c2n1C/C=C/CNC(=O)c1cnc2ccccc2c1 | > 100 | > 100 |
| > 100 | > 100 | CCn1nc(C)cc1C(=O)Nc1nc2cc(C(N)=O)cc(OC)c2n1CCOCCNC(=O)c1ccc2ccccc2c1 | > 100 | > 100 |
| > 100 | > 100 | CCn1nc(C)cc1C(=O)Nc1nc2cc(C(N)=O)cc(OC)c2n1CCCNC(=O)c1ccc(-c2ccccc2)cc1 | > 100 | > 100 |
| > 100 | 7.04 | CCn1nc(C)cc1C(=O)Nc1nc2cc(C(N)=O)cc(OC)c2n1CCCC(=O)NCc1ccc2ccccc2c1 | > 100 | > 100 |
| > 100 | 1.12 | CCn1nc(C)cc1C(=O)Nc1nc2cc(C(N)=O)cc(OCC3CC3)c2n1NCCCNC(=O)c1ccc2ccccc2c1 | > 100 | 12.1 |

— ChEMBL document CHEMBL5331071, “Structure-activity relationship study of amidobenzimidazole derivatives as stimulator of interferon genes (STING) agonists” (Eur J Med Chem, 2023)
